From patent US20130252831A1, “METHOD OF DIAGNOSING EARLY STAGE NON-SMALL CELL LUNG CANCER” (H. Lee Moffitt Cancer Center and Research Institute, Inc., priority 2010, published 2013)

How the values were obtained:
A489 cell line = test: MR score in cisplatin treated versus control cells, Almeida et al. dataset GSE6410; format: cell-based; conditions: p=0.08
Text: The inventors have identified 10 published datasets describing drug sensitivity in cell lines. Three of them have been analyzed to show the potential of the MR signature for its association with drug sensitivity. […] A high MR score tends to be associated with low GI50 (sensitivity) in both drugs. In addition, in the Almeida et al.'s study (GSE6410), the MR score was lower in the cisplatin treated group than in the control group in A489 cell line (FIG. 20c).
Thousands and thousands of gene expression array data have been deposited at various public repositories, such as NCBI's Gene Expression Omnibus and EBI's ArrayExpress with more than 600,000 array data for each site (updated in October 2011; 100,000 more since January 2011). The broad and unrestricted microarray data have made in-silico validation of hypotheses accessible and feasible. For this invention, more than 1,000 microarray datasets have potential for performing in-silico validation (e.g., data related to the keyword “non-small cell lung cancer cell line” at GEO). First, appropriate datasets are identified for validation by reading the […] (at least abstract and experimental design). At this moment, more than 10 potential useful datasets have been identified. […] Molecular cancer therapeutics, 2008, 7(7); p. […]

EGFR-mutant NSCLC = conditions: randomized phase III trial (Zhou et al.); cited from earlier work

| Structure (SMILES) | MR score in treated group versus control group (A489 cell line) | efficacy compared with platinum-based chemotherapy (EGFR-mutant NSCLC) |
| --- | --- | --- |
| N.N.[Cl][Pt][Cl] [Cisplatin] | lower | – |
| C#Cc1cccc(Nc2ncnc3cc(OCCOC)c(OCCOC)cc23)c1 [erlotinib] | – | superior to platinum-based chemotherapy |
